“Also recorded” adds a separate entry of the source.

Data on 2 compounds can be found in US20120289432A1, “PI3K MODULATORS, RHO KINASE MODULATORS AND METHODS OF IDENTIFYING AND USING SAME” (Corning Incorporated, priority 2009, published 2012).

Holding throughout (assay type): cell-based, human
In one test the test system is A549 and A431 cells. Nature of the test: DMR index against panels of markers across A549 and A431 cells, compared with LY294002. Conditions: markers pinacidil, forskolin, histamine (A549), EGF (A431). How it is done: (§1) The index was generated after normalizing each marker-induced DMR signal in the presence of the inhibitor to its corresponding signal in the absence of the inhibitor. The percentage of modulation for each marker by the inhibitor was plotted as a function of the marker. As shown from left to right in a sequential order, the DMR events used for the basis of the modulation percentage calculation are: the N-DMR (50 min after stimulation) for pinacidil in A549, the P-DMR (50 min after stimulation) for forskolin in A549, the early P-DMR event (˜10 min after histamine stimulation) and the late P-DMR event (˜30 min after histamine stimulation) for histamine in A549, and the early P-DMR event (˜5 min after EGF stimulation) and the subsequent N-DMR event (˜30 min after EGF stimulation) for EGF in A431 cells. In all cases, the amplitudes of respective DMR events were used as the basis to calculate the percentages of modulation by the PI3K inhibitors. The same procedure was used to generate FIGS. 8 to 14.
Optical biosensors such as RWG biosensor measure dynamic mass redistribution (DMR) signals of cells upon stimulation. A DMR index contains the primary DMR profile or signal of a chemical acting on a panel of live cells, and the modulation index of the chemical against panels of markers across the panel of cells, a panel of markers for each cell line. […]

Test [1] deals with A549 cells. Briefly: Label-free RWG (Epic) biosensor DMR assay, agonism mode, A549 cells. The note with it: primary profile. As to the method: (§2) Cells were typically grown using ˜1 to 2×10^4 cells per well at passage 3 to 15 suspended in 50 μl of the corresponding culture medium in the biosensor microplate, and were cultured at 37° C. under air/5% CO2 for ˜1 day. Except for A431 which underwent one day culture followed by one starvation in serum free medium, all other cells were directly assayed without starvation. The confluency for all cells at the time of assays was ˜95% to 100%.
(§3) Epic® beta version wavelength interrogation system (Corning Inc., Corning, N.Y.) was used for whole cell sensing. This system consists of a temperature-control unit, an optical detection unit, and an on-board liquid handling unit with robotics. The detection unit is centered on integrated fiber optics, and enables kinetic measures of cellular responses with a time interval of ˜15 sec.
(§4) For biosensor cellular assays, molecule solutions were made by diluting the stored concentrated solutions with the HBSS (1× Hanks balanced salt solution, plus 20 mM Hepes, pH 7.1), and transferred into a 384 well polypropylene molecule storage plate to prepare a molecule source plate. Both molecule and marker source plates were made separately when a two-step assay was performed. In parallel, the cells were washed twice with the HBSS and maintained in 30 μl of the HBSS to prepare a cell assay plate. Both the cell assay plate and the molecule and marker source plate(s) were then incubated in the hotel of the reader system. After ˜1 hr of incubation the baseline wavelengths of all biosensors in the cell assay microplate were recorded and normalized to zero. Afterwards, a 2 to 10 minute continuous recording was carried out to establish a baseline, and to ensure that the cells reached a steady state. Cellular responses were then triggered by pipetting 10 μl of the marker solutions into the cell assay plate using the on-board liquid handler.
(§5) All studies were carried out at a controlled temperature (28° C.). At least two independent sets of experiments, each with at least three replicates, were performed.

Test [2] concerns HepG2 cells. Nature of the test: Label-free RWG biosensor DMR assay, agonism mode, HepG2 cells. Conditions: primary profile. As to the method:
as §2, §3
(§6) For biosensor cellular assays, molecule solutions were made by diluting the stored concentrated solutions with the HBSS (1× Hanks balanced salt solution, plus 20 mM Hepes, pH 7.1), and transferred into a 384 well polypropylene molecule storage plate to prepare a molecule source plate. […] Both the cell assay plate and the molecule and marker source plate(s) were then incubated in the hotel of the reader system. After ˜1 hr of incubation the baseline wavelengths of all biosensors in the cell assay microplate were recorded and normalized to zero. […]

In the next test the test system is HT-29 cells. Briefly: Label-free RWG biosensor DMR assay, agonism mode, HT-29 cells. The note with it: primary profile. How it is done:
as §2, §3, §6

The test system of test [3] is A549 cells. Nature of the test: DMR modulation of marker-induced responses (two-step assay) in A549 cells. The note with it: for modulation of the pinacidil response in A549 cells: compound pretreatment ~1 hr (10 micromolar), then pinacidil 10 micromolar. As to the method:
as §1, §2, §4
To study the influence of molecules on a marker-induced response, a second stimulation with the marker at a fixed dose (typically at EC80 or EC100) was applied. The resonant wavelengths of all biosensors in the microplate were normalized again to establish a second baseline, right before the second stimulation. The two stimulations were usually separated by ˜1 hr.
as §5

Test [4] relates to HepG2 cells. Nature of the test: DMR modulation of the ODN2006-induced response in HepG2 cells. Conditions: inhibitor 10 micromolar, ODN2006 500 nM. How it is done:
as §2
as §4, with “Cellular responses were then triggered by pipetting 10 μl of the marker solutions into the cell assay plate using the on-board liquid handler.” left out

The subject of test [5] is A549 cells. Briefly: Desensitization of pretreated A549 cells to stimulation with ROCK inhibitor Y-27632. The note with it: pretreatment 10 micromolar ~1 hour, then Y-27632 at EC100 (10 micromolar). The text has this:
FIG. 19 The optical biosensor DMR signals of human lung cancer cell line A549 in response to a well-known Rho kinase inhibitor […] (10 micromolar) in the absence (“buffer”) and presence of two compounds (the Rho kinase inhibitor Y27632, and another Rho kinase inhibitor “compound”). Either of these two inhibitors at 10 micromolar was used to pretreat the A549 cells for ˜1 hr, before the stimulation with Y27632. The desensitization of cells to the second stimulation with Y27632 is an indicator that the compound used for the pretreatment of the cells is a Rho kinase inhibitor.
For biosensor cellular assays, molecule solutions were made by diluting the stored concentrated solutions with the HBSS (1× Hanks balanced salt solution, plus 20 mM Hepes, pH 7.1), and transferred into a 384 well polypropylene molecule storage plate to prepare a molecule source plate. Both molecule and marker source plates were made separately when a two-step assay was performed. In parallel, the cells were washed twice with the HBSS and maintained in 30 μl of the HBSS to prepare a cell assay plate. Both the cell assay plate and the molecule and marker source plate(s) were then incubated in the hotel of the reader system. After ˜1 hr of incubation the baseline wavelengths of all biosensors in the cell assay microplate were recorded and normalized to zero. […]

`O=c1cc(N2CCNCC2)oc2c(-c3ccccc3)cccc12` [LY303511]: in the test with A549 and A431 cells, the “type of DMR index compared with the PI3K inhibitor LY294002” value was “completely distinct type of DMR index”.

As to `C[C@@H](N)[C@H]1CC[C@H](C(=O)Nc2ccncc2)CC1` [Y-27632], the “DMR (biosensor) signal of the compound in A549 cells” value in the test with A549 cells [1] was “detectable, and dose-dependent biosensor signals; also recorded: characteristic negative DMR signal”. Besides, in the test on HepG2 cells [2], the “DMR (biosensor) signal of the compound in HepG2 cells” value is on record as “net-zero DMR signal”. In the test on HT-29 cells, the “DMR (biosensor) signal of the compound in HT-29 cells” value was “detectable, and dose-dependent biosensor signals”. The “modulation of the pinacidil response in A549 cells” value in the test on A549 cells [3] is “complete or significant attenuation; also recorded: attenuated”; with A549 cells [3] (listed as Y027632), “dose-dependently attenuate”; in the test on A549 cells [3] (listed as Y27632), “fully attenuated; also recorded: almost completely attenuated”. Moreover, the “modulation of the forskolin response (P-DMR) in A549 cells” value in the test with A549 cells [3] (inhibitor 10 micromolar, forskolin 16 micromolar) was “potentiated”. Besides, in the test with A549 cells [3] (inhibitor 10 micromolar, histamine 10 micromolar), the “modulation of the histamine response (early and late P-DMR) in A549 cells” value was “potentiated”. Moreover, the “modulation of the PMA response in A549 cells” value with A549 cells [3] (pretreatment 10 micromolar) was “potentiated”. Besides, the “modulation of the SLIGKV response in A549 cells” value in the test with A549 cells [3] (pretreatment 10 micromolar) was “potentiated”. In addition, the “modulation of the poly(IC) response in A549 cells” value with A549 cells [3] (pretreatment 10 micromolar) is recorded as “potentiated”. In the test on HepG2 cells [4], the “modulation of the ODN2006 DMR signal in HepG2 cells” value is “potentiated”. The “desensitization of A549 cells to second stimulation with Y-27632” value in the test with A549 cells [5] was “significantly caused the cells desensitize”.
